Results published in ChEMBL document CHEMBL5696440, “Inhibition of BET recruitment to chromatin as an effective treatment for MLL-fusion leukaemia” (Nature, 2011).

Columns and labels:
[1] = Cmax in NOD:SCID mouse at 30 mg/kg, ip administered for 24 hrs by LC-MS/MS analysis; type: ADME, organism-based; conditions: in vivo
[2] = AUC (0 to infinity) in NOD:SCID mouse at 30 mg/kg, ip administered for 24 hrs by LC-MS/MS analysis; type: ADME, organism-based; conditions: in vivo
[3] = Half life in NOD:SCID mouse at 30 mg/kg, ip administered for 24 hrs by LC-MS/MS analysis; type: ADME, organism-based; conditions: in vivo
[4] = system: NOMO-1; assay: Antiproliferative activity against human NOMO-1 cells harboring MLL-AF9 assessed as inhibition of cell growth incubated for […] by CellTiter-Aqueous One assay; type: functional, cell-based; conditions: NOMO-1, 4 h
[5] = system: K562; assay: cells; conditions: Homo sapiens, K562, 4 h
[6] = biological target: Prostaglandin G/H synthase 2 (Homo sapiens, UniProt P35354); assay: Inhibition of human COX-2 by FLINT assay
[7] = biological target: 3',5'-cyclic-AMP phosphodiesterase 4B (Homo sapiens, UniProt Q07343); assay: Inhibition of human PDE4B by luminescence assay
[8] = biological target: 5-hydroxytryptamine receptor 1B (Homo sapiens, UniProt P28222); assay: Inhibition of human 5-HT1B in presence of GTPgS
[9] = biological target: 5-hydroxytryptamine receptor 2A (Homo sapiens, UniProt P28223); assay: Inhibition of human 5-HT2A by intracellular Ca2+ luminescence assay; type: functional, cell-based
Sequence of 5-hydroxytryptamine receptor 2A (P28223 whole entry): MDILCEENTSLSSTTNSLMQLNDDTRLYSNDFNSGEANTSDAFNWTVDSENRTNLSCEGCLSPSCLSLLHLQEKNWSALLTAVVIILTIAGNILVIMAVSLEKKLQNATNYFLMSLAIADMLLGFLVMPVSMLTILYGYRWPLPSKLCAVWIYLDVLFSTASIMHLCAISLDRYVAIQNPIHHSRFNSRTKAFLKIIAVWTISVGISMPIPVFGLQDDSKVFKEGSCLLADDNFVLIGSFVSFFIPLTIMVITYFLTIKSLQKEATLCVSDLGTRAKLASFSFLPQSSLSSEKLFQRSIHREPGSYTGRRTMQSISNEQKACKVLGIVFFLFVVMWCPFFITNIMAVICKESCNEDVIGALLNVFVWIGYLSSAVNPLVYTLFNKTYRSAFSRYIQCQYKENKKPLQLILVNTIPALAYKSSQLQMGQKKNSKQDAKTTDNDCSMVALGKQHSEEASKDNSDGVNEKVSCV

[10] = biological target: 5-hydroxytryptamine receptor 2C (Homo sapiens, UniProt P28335); assay: Inhibition of human 5-HT2C by intracellular Ca2+ luminescence assay; type: functional, cell-based
[11] = biological target: Alpha-1B adrenergic receptor (Homo sapiens, UniProt P35368); assay: Inhibition of human adrenergic alpha 1B by intracellular Ca2+ fluorescence assay; type: functional, cell-based
[12] = biological target: Beta-2 adrenergic receptor (Homo sapiens, UniProt P07550); assay: Inhibition of human beta2 adrenoceptor […] incubated for 1 hr by TR-FRET assay
[13] = biological target: D(2) dopamine receptor (Homo sapiens, UniProt P14416); assay: Inhibition of human dopamine 2 receptor in presence of GTPgS
[14] = biological target: D(1A) dopamine receptor (Homo sapiens, UniProt P21728); assay: Inhibition of His6-tagged human dopamine 1 receptor […] incubated for 1 hr by TR-FRET assay
Sequence of D(1A) dopamine receptor (P21728 whole entry): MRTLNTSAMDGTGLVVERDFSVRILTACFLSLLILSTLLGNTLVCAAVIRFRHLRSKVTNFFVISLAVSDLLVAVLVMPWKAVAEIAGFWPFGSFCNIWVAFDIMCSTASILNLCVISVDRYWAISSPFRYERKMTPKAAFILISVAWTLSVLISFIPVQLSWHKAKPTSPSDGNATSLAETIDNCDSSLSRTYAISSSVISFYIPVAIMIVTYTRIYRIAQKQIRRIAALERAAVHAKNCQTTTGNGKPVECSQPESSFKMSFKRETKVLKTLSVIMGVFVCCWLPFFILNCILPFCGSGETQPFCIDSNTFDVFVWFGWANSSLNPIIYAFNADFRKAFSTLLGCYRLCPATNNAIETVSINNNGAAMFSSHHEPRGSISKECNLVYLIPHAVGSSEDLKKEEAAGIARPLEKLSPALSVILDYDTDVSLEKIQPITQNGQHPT

[15] = biological target: Histamine H1 receptor (Homo sapiens, UniProt P35367); assay: Inhibition of human HRH1 by intracellular Ca2+ luminescence assay; type: functional, cell-based
[16] = biological target: Serotonin 3 (5-HT3) receptor; assay: Inhibition of human 5-HT3 by intracellular Ca2+ fluorescence assay; type: cell-based
[17] = biological target: Muscarinic acetylcholine receptor M1 (Homo sapiens, UniProt P11229); assay: Inhibition of human M1 by intracellular Ca2+ fluorescence assay; type: functional, cell-based
[18] = biological target: Muscarinic acetylcholine receptor M2 (Homo sapiens, UniProt P08172); assay: Inhibition of human M2 by intracellular Ca2+ fluorescence assay; type: functional, cell-based
[19] = biological target: Substance-P receptor (Homo sapiens, UniProt P25103); assay: Inhibition of human NK1 by intracellular Ca2+ luminescence assay; type: functional, cell-based
[20] = biological target: Kappa-type opioid receptor (Homo sapiens, UniProt P41145); assay: Inhibition of human OPRK1 in presence of GTPgS
[21] = biological target: Mu-type opioid receptor (Homo sapiens, UniProt P35372); assay: Inhibition of human OPRM1 in presence of GTPgS
[22] = biological target: Vasopressin V1a receptor (Homo sapiens, UniProt P37288); assay: Inhibition of human V1a by intracellular Ca2+ fluorescence assay; type: functional, cell-based
[23] = biological target: Acetylcholine receptor subunit alpha (Homo sapiens, UniProt P02708); assay: Inhibition of human alpha 1 nAChR by intracellular Ca2+ fluorescence assay; type: cell-based
[24] = biological target: Voltage-dependent L-type calcium channel subunit alpha-1C (Homo sapiens, UniProt Q13936); assay: Inhibition of human CaV1.2 by intracellular Ca2+ fluorescence assay; type: cell-based
Sequence of Voltage-dependent L-type calcium channel subunit alpha-1C (Q13936 whole entry): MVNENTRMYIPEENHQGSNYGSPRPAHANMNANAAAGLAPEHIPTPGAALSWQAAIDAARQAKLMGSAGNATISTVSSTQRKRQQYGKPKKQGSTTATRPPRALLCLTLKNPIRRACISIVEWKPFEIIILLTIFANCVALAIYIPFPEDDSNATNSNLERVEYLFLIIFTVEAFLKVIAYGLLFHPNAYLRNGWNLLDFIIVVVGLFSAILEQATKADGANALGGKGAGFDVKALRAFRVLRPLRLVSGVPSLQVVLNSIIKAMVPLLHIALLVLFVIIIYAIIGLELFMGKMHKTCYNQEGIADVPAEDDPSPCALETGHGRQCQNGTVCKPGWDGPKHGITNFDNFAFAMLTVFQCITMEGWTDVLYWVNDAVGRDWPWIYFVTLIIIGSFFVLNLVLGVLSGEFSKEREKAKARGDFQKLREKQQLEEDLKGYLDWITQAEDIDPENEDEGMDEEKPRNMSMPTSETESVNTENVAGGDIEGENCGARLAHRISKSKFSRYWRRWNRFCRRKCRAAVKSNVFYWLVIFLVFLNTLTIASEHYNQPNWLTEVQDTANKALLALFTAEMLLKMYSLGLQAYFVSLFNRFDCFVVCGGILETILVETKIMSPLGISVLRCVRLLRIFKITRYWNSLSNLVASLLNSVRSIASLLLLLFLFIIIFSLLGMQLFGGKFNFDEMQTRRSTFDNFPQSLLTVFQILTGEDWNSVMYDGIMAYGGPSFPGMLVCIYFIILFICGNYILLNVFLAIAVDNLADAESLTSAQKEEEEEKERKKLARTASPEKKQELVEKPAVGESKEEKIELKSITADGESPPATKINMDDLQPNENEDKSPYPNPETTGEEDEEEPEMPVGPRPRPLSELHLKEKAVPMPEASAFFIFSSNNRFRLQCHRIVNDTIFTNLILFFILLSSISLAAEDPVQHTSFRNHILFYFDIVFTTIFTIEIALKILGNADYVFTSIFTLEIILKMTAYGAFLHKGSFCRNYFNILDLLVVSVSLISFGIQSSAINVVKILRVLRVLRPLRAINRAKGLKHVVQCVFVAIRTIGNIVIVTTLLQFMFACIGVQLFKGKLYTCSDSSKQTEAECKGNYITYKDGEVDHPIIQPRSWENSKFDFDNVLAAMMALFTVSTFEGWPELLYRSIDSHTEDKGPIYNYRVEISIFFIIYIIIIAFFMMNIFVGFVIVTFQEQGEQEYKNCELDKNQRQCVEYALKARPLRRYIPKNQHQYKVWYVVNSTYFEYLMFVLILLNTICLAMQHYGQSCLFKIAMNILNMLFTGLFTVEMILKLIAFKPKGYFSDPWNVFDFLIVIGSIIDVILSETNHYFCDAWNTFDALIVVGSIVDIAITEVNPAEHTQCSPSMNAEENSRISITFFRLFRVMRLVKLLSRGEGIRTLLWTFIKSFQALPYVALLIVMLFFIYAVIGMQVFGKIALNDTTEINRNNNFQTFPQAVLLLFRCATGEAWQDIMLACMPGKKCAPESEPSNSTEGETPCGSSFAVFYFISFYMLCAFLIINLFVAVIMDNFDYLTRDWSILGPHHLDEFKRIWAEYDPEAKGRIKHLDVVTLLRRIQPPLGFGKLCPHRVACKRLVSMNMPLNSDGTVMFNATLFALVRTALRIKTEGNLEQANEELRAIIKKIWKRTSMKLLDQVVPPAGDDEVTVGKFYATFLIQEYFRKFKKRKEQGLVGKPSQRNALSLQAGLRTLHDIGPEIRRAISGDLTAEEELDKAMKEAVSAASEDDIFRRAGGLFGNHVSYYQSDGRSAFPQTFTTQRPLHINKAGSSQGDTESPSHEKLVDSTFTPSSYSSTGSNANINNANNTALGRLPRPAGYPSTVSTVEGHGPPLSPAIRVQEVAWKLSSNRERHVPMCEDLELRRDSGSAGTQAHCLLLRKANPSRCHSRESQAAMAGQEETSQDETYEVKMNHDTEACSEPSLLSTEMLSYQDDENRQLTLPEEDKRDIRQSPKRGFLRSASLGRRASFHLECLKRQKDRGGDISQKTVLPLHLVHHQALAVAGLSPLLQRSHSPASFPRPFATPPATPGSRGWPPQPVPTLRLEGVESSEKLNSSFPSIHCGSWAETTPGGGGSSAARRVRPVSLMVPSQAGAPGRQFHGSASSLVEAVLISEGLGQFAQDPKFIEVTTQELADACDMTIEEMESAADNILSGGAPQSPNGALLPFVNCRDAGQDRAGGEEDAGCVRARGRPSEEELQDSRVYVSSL

[25] = biological target: Voltage-gated potassium channel, IKs; KCNQ1(Kv7.1)/KCNE1(MinK) (Homo sapiens, UniProt P15382+P51787); assay: Inhibition of human KCNQ1/KCNE1 by blocker ionworks assay; type: protein-complex assay
Sequence of Voltage-gated potassium channel, IKs; KCNQ1(Kv7.1)/KCNE1(MinK) (P51787 whole entry): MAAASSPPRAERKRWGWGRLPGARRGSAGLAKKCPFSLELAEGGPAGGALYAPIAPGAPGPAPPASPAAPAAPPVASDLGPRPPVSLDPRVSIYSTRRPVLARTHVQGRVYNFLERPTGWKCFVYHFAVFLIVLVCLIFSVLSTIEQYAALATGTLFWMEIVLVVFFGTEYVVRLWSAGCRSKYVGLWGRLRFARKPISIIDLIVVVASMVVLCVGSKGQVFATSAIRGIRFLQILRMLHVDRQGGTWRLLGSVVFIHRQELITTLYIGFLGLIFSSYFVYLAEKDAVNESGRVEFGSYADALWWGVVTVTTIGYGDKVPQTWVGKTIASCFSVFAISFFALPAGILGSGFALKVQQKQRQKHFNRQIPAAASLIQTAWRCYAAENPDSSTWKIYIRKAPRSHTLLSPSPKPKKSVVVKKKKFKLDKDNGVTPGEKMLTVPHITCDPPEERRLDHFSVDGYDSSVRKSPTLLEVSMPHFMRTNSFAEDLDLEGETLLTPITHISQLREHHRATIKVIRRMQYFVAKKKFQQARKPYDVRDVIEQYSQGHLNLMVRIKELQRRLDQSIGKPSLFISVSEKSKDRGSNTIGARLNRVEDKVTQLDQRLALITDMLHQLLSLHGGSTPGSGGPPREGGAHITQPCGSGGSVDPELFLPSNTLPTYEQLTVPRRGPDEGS

[26] = biological target: Potassium voltage-gated channel subfamily A member 5 (Homo sapiens, UniProt P22460); assay: Inhibition of human Kv1.5 by blocker ionworks assay
[27] = biological target: Sodium channel protein type 5 subunit alpha (Homo sapiens, UniProt Q14524); assay: Inhibition of human NaV1.5 by blocker ionworks assay
[28] = biological target: Aurora kinase B (Homo sapiens, UniProt Q96GD4); assay: Inhibition of His6-tagged human Aurora B kinase at pH 7.4 incubated for 60 mins by Alexa Fluor 488 staining based fluorescence anisotropy analysis
[29] = biological target: Glycogen synthase kinase-3 beta (Homo sapiens, UniProt P49841); assay: Inhibition of His6-tagged human GSK3beta at pH 7.4 incubated for 60 mins by Alexa Fluor 488 staining based fluorescence anisotropy analysis
Sequence of Glycogen synthase kinase-3 beta (P49841 whole entry): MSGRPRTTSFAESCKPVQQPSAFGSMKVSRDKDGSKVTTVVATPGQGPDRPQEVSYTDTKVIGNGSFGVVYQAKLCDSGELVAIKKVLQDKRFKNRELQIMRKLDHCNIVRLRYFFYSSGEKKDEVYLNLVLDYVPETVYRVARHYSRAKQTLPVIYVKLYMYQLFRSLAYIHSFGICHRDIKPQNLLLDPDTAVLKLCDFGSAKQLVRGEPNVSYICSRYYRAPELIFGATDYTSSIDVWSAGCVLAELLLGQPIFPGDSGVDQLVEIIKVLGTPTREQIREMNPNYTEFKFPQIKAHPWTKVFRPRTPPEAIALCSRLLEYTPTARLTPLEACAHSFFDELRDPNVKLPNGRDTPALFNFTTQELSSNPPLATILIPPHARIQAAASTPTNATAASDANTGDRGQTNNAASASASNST

[30] = biological target: Tyrosine-protein kinase Lck (Homo sapiens, UniProt P06239); assay: Inhibition of His6-tagged human LCK at pH 7.4 incubated for 60 mins by Alexa Fluor 488 staining based fluorescence anisotropy analysis
Sequence of Tyrosine-protein kinase Lck (P06239 whole entry, canonical isoform): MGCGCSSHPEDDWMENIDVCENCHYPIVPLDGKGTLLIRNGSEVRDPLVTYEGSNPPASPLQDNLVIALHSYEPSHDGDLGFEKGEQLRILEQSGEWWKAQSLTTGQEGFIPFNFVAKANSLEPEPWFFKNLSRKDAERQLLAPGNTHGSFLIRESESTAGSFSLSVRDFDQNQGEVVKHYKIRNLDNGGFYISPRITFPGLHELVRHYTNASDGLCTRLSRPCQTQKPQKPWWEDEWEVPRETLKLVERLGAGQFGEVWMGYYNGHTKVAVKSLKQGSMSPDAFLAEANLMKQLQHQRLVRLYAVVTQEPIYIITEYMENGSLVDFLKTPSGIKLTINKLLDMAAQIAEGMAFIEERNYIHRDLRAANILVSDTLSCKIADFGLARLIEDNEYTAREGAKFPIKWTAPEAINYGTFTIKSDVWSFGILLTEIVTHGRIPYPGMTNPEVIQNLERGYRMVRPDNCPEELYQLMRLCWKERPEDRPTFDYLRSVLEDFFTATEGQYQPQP

[31] = biological target: Phosphatidylinositol 4,5-bisphosphate 3-kinase catalytic subunit gamma isoform (Homo sapiens, UniProt P48736); assay: Inhibition of His6-tagged human PI3K-gamma […] incubated for 1 hr by TR-FRET assay
[32] = biological target: Sodium-dependent dopamine transporter (Homo sapiens, UniProt Q01959); assay: Inhibition of human DAT by scintillation proximity assay
[33] = biological target: Solute carrier organic anion transporter family member 1B1 (Homo sapiens, UniProt Q9Y6L6); assay: Inhibition of human OATP1B1 by FLINT imaging analysis
[34] = Cmax in NOD:SCID mouse at 30 mg/kg, ip administered for 36 hrs by LC-MS/MS analysis; type: ADME, organism-based; conditions: in vivo
[35] = AUC (0 to infinity) in NOD:SCID mouse at 30 mg/kg, ip administered for 36 hrs by LC-MS/MS analysis; type: ADME, organism-based; conditions: in vivo
[36] = system: MV4-11; assay: Antiproliferative activity against human MV4-11 cells assessed as inhibition of cell growth incubated for 72 hrs by CellTiter-Glo assay; type: functional, cell-based
[37] = biological target: Serine/threonine-protein kinase Chk1 (Homo sapiens, UniProt O14757); assay: Inhibition of CHEK1 (unknown origin) incubated for 1 hr by colloidal coomassie staining based LC-MS/MS analysis
[38] = biological target: Cyclin-dependent kinase 2 (Homo sapiens, UniProt P24941); assay: Inhibition of CDK2 (unknown origin) incubated for 1 hr by colloidal coomassie staining based LC-MS/MS analysis
[39] = biological target: Nucleoside diphosphate kinase A/B (Homo sapiens, UniProt P15531+P22392); assay: Inhibition of NME1/NME2 (unknown origin) incubated for 1 hr by colloidal coomassie staining based LC-MS/MS analysis; type: protein assay
[40] = in vivo; conditions: NOD:SCID, mouse, ip, 30 mg/kg

Compound: Cc1sc2c(c1C)C(c1ccc(Cl)cc1)=N[C@@H](CC(=O)OC(C)(C)C)c1nnc(C)n1-2
- Cmax [1]: 0.84 µM
- AUC [2]: 2 µM·h
- half-life [3]: 2.3 h

Compound: O=C(Nc1c[nH]nc1-c1nc2ccc(CN3CCOCC3)cc2[nH]1)NC1CC1 [AT-9283]
- IC50 [4]: > 10 µM
- IC50 [5]: 0.26 µM

Compound: CCNC(=O)C[C@@H]1N=C(c2ccc(Cl)cc2)c2cc(OC)ccc2-n2c(C)nnc21 [MOLIBRESIB]
- IC50 [6]: > 100 µM
- IC50 [7]: > 25 µM
- IC50 [8]: > 100 µM
- IC50 [9]: > 40 µM
- IC50 [10]: > 40 µM
- IC50 [11]: > 40 µM
- IC50 [12]: > 31.6 µM
- IC50 [13]: > 100 µM
- IC50 [14]: > 31.6 µM
- IC50 [15]: > 40 µM
- IC50 [16]: > 50 µM
- IC50 [17]: > 15.1 µM
- IC50 [18]: > 15.8 µM
- IC50 [19]: > 40 µM
- IC50 [20]: > 100 µM
- IC50 [21]: > 100 µM
- IC50 [22]: > 50 µM
- IC50 [23]: 15.8 µM
- IC50 [24]: > 15.8 µM
- IC50 [25]: > 25 µM
- IC50 [26]: > 50 µM
- IC50 [27]: > 100 µM
- IC50 [28]: > 25 µM
- IC50 [29]: > 25 µM
- IC50 [30]: > 25 µM
- IC50 [31]: > 25 µM
- IC50 [32]: 79 µM
- IC50 [33]: 12.6 µM
- Cmax [34]: 21.9 µM
- AUC [35]: 40.3 µM·h
- IC50 ([36]; Homo sapiens, MV4-11, 72 h): 0.102 µM
- IC100 ([36]; time 72 hrs): 723 nM
- IC50 [37]: > 10 µM
- IC50 [38]: ≥ 10 µM
- IC50 [39]: > 10 µM
- half-life at 36 h [40]: 1.6 h
